ChEMBL document CHEMBL1201862, “PubChem BioAssay data set” (2004)
Values joined by “and” are separate entries in the source; they are usually repeats but may differ in a detail not shown here. Identical values can stand only once.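 Values below derive from 48-hour exposures of cells grown in 96-well plates, with endpoints linearly interpolated between the two concentrations bracketing the appropriate inhibition level. At the GI50, growth is halved.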 Active and inactive are the calls of the source. No stated cut-off is given here; in the data, active = GI50 up to about 1.1 µM and inactive = higher.

Tests used:
Test in all cases: NCI anticancer screen, dose series, 48 h
[1] = system: MDA-MB-231
[2] = system: OVCAR-3
[3] = system: SW-620
[4] = system: Malme-3M
[5] = system: SF-539
[6] = system: MOLT-4
[7] = system: CAKI-1
[8] = system: SNB-75
[9] = system: SK-MEL-5
[10] = system: SK-MEL-2
[11] = system: SNB-19
[12] = system: TK-10
[13] = system: UACC-62
[14] = system: PC-3
[15] = system: NCI-H460
[16] = system: NCI-H522
[17] = system: T47D
[18] = system: LOX IMVI
[19] = system: CCRF-CEM
[20] = system: HCC 2998

SMILES	GI50 [1]	GI50 [2]	GI50 [3]	GI50 [4]	GI50 [5]	GI50 [6]	GI50 [7]	GI50 [8]	GI50 [9]	GI50 [10]	GI50 [11]	GI50 [12]	GI50 [13]	GI50 [14]	GI50 [15]	GI50 [16]	GI50 [17]	GI50 [18]	GI50 [19]	GI50 [20]
COc1nc(N)nc2c1n(C)c[n+]2C	> 100 µM (inactive)	> 100 µM (inactive)	> 100 µM (inactive)	> 100 µM (inactive)	> 100 µM (inactive)	> 100 µM (inactive)	> 100 µM (inactive)	> 100 µM (inactive)	> 100 µM (inactive)	> 100 µM (inactive)	> 100 µM (inactive)	> 100 µM (inactive)	> 100 µM (inactive)	> 100 µM (inactive)	> 100 µM (inactive)	> 100 µM (inactive)	> 100 µM (inactive)	> 100 µM (inactive)	> 100 µM (inactive)	
CCOC(=O)c1cnc2[nH]ccn2c1=O	> 10 µM (inactive)	> 10 µM (inactive)	> 10 µM (inactive)	> 10 µM (inactive)	> 10 µM (inactive)	> 10 µM (inactive)	> 10 µM (inactive)	> 10 µM (inactive)	> 10 µM (inactive)	> 10 µM (inactive)	> 10 µM (inactive)	> 10 µM (inactive)	> 10 µM (inactive)	> 10 µM (inactive)	> 10 µM (inactive)		> 10 µM (inactive)	> 10 µM (inactive)	> 10 µM (inactive)	
O=C(c1ccccc1Cl)n1oc2ccccc2c1=O	> 100 µM (inactive)	> 100 µM (inactive)	57 µM (inactive)	> 100 µM (inactive)	37.8 µM (inactive)	22.8 µM (inactive)	29.7 µM (inactive)	51.1 µM (inactive)	82.4 µM (inactive)	> 100 µM (inactive)	> 100 µM (inactive)	> 100 µM (inactive)	> 100 µM (inactive)	> 100 µM (inactive)	> 100 µM (inactive)	13.8 µM (inactive)	> 100 µM (inactive)	72.3 µM (inactive)	27.5 µM (inactive)	
O=C(O)CSc1ccn(Cc2ccccc2)c1	> 100 µM (inactive)	> 100 µM (inactive)	> 100 µM (inactive)	> 100 µM (inactive)	> 100 µM (inactive)	> 100 µM (inactive)	> 100 µM (inactive)	> 100 µM (inactive)	> 100 µM (inactive)	> 100 µM (inactive)	> 100 µM (inactive)	> 100 µM (inactive)	> 100 µM (inactive)	> 100 µM (inactive)	> 100 µM (inactive)	> 100 µM (inactive)	> 100 µM (inactive)	> 100 µM (inactive)	> 100 µM (inactive)	
CCOC(=O)/C(C)=C\[C@@]1(C)O[C@@H](C)[C@@](C)(OC(C)=O)[C@@H]1OC(C)=O	57.5 µM (inactive)	33.4 µM (inactive)	67.5 µM (inactive)	57.3 µM (inactive)	> 100 µM (inactive)	30 µM (inactive)	33 µM (inactive)		33.8 µM (inactive)	61.8 µM (inactive)	> 100 µM (inactive)	78.9 µM (inactive)	49.9 µM (inactive)	36.6 µM (inactive)	43 µM (inactive)	25.2 µM (inactive)	19.9 µM (inactive)	71 µM (inactive)	33.5 µM (inactive)	30.2 µM (inactive)
Cn1c2ccccc2c2c(=O)[nH]c(=O)[nH]c21	> 100 µM (inactive)	> 100 µM (inactive)	> 100 µM (inactive)	> 100 µM (inactive)	> 100 µM (inactive)	> 100 µM (inactive)	> 100 µM (inactive)	82.4 µM (inactive)	> 100 µM (inactive)	> 100 µM (inactive)	> 100 µM (inactive)	> 100 µM (inactive)	> 100 µM (inactive)			> 100 µM (inactive)	> 100 µM (inactive)	> 100 µM (inactive)	> 100 µM (inactive)	> 100 µM (inactive)
O=S(=O)(/N=S(/Nc1ccccc1)C(Cl)Cl)c1ccccc1 (configuration not stated)	> 100 µM (inactive)	> 100 µM (inactive)	> 100 µM (inactive)	> 100 µM (inactive)	> 100 µM (inactive)	> 100 µM (inactive)		> 100 µM (inactive)		> 100 µM (inactive)	> 100 µM (inactive)	> 100 µM (inactive)	> 100 µM (inactive)	> 100 µM (inactive)	> 100 µM (inactive)		> 100 µM (inactive)	> 100 µM (inactive)	> 100 µM (inactive)	
COC(CNC(=O)C(C)NC(=O)CCc1ccccc1)OC (configuration not stated)	> 100 µM (inactive)		> 100 µM (inactive)	> 100 µM (inactive)	> 100 µM (inactive)	> 100 µM (inactive)	> 100 µM (inactive)	> 100 µM (inactive)	> 100 µM (inactive)	> 100 µM (inactive)	> 100 µM (inactive)	> 100 µM (inactive)	> 100 µM (inactive)	> 100 µM (inactive)	> 100 µM (inactive)	> 100 µM (inactive)	> 100 µM (inactive)		> 100 µM (inactive)	
CC(=O)OC1C2CCC3CC2C2(SCCS2)C31 (configuration not stated)	51.9 µM (inactive)	> 100 µM (inactive)	> 100 µM (inactive)	> 100 µM (inactive)	65.9 µM (inactive)	> 100 µM (inactive)			> 100 µM (inactive)	> 100 µM (inactive)	> 100 µM (inactive)	> 100 µM (inactive)	> 100 µM (inactive)	> 100 µM (inactive)	> 100 µM (inactive)	> 100 µM (inactive)	> 100 µM (inactive)	> 100 µM (inactive)		> 100 µM (inactive)
COCN1C(=O)[C@@H]2CCCN2C(=O)c2cc(N)ccc21	> 100 µM (inactive)		> 100 µM (inactive)	> 100 µM (inactive)	> 100 µM (inactive)		> 100 µM (inactive)	> 100 µM (inactive)		> 100 µM (inactive)	> 100 µM (inactive)	> 100 µM (inactive)	> 100 µM (inactive)	> 100 µM (inactive)		> 100 µM (inactive)	> 100 µM (inactive)	> 100 µM (inactive)		
CCN1C(=O)C(=C/C=C/c2ccc(OC)cc2)C(=O)N(CC)C1=S	19.8 µM (inactive)	16.6 µM (inactive)	20.8 µM (inactive)	12.5 µM (inactive)	19.6 µM (inactive)	25.7 µM (inactive)	21.7 µM (inactive)		26.5 µM (inactive)	> 100 µM (inactive)	37.9 µM (inactive)	17.5 µM (inactive)	16.7 µM (inactive)	19.4 µM (inactive)	30.7 µM (inactive)		> 100 µM (inactive)	17.3 µM (inactive)	20.6 µM (inactive)	53.2 µM (inactive)
CC(=O)NC(CSC1=C2NC(=O)\C=C/C=C\C=C/C(C)C(O)CC(=O)/C(C)=C\CC(O)/C=C\C(C)C(O)C(C)C=C(C)C(=O)c3c(O)c(C)cc(c3C1=O)C2=O)C(=O)O (configuration not stated)	24.6 µM (inactive)	96.6 µM (inactive)	45.7 µM (inactive)	52.1 µM (inactive)	> 100 µM (inactive)	28.6 µM (inactive)	> 100 µM (inactive)	28.6 µM (inactive)	39.3 µM (inactive)	80.7 µM (inactive)	61.4 µM (inactive)	> 100 µM (inactive)	51.5 µM (inactive)	> 100 µM (inactive)	94 µM (inactive)	17.3 µM (inactive)	91 µM (inactive)	69.2 µM (inactive)	22.3 µM (inactive)	
CCNC(=O)CCC(C)[C@H]1CCC2C3C(C[C@H](OC(C)=O)[C@@]21C)[C@@]1(C)CCC2(C[C@H]1C[C@H]3OC(C)=O)OOC1(CCC(C)CC1)OO2 (some centres not stated)	2.1 µM (inactive)	1.55 µM (inactive) and 1.59 µM (inactive)	4.6 µM (inactive) and 2.74 µM (inactive)	2.23 µM (inactive) and 1.6 µM (inactive)	1.97 µM (inactive) and 2.75 µM (inactive)		1.5 µM (inactive) and 820 nM (active)	1.59 µM (inactive) and 1.95 µM (inactive)	1.67 µM (inactive) and 1.61 µM (inactive)	1.58 µM (inactive) and 1.61 µM (inactive)	6.38 µM (inactive) and 4.21 µM (inactive)	2.3 µM (inactive) and 2.43 µM (inactive)	1.69 µM (inactive) and 2.26 µM (inactive)		2.39 µM (inactive) and 1.75 µM (inactive)	1.47 µM (inactive) and 1.22 µM (inactive)	1.43 µM (inactive) and 1.68 µM (inactive)	1.83 µM (inactive) and 2.05 µM (inactive)	710 nM (active) and 1.24 µM (inactive)	1.75 µM (inactive) and 3.1 µM (inactive)
CC(C)C(Nc1ncnc2nc[nH]c12)C(=O)O (configuration not stated)	> 100 µM (inactive)	> 100 µM (inactive)	> 100 µM (inactive)	> 100 µM (inactive)			> 100 µM (inactive)	> 100 µM (inactive)	> 100 µM (inactive)	> 100 µM (inactive)	> 100 µM (inactive)	> 100 µM (inactive)	> 100 µM (inactive)	> 100 µM (inactive)	> 100 µM (inactive)	> 100 µM (inactive)	> 100 µM (inactive)	> 100 µM (inactive)	> 100 µM (inactive)	
COc1ccc2nc3ccccc3c(NCCN(C)CCCl)c2c1	1.15 µM (inactive)	0.736 µM (active)	0.175 µM (active)	0.399 µM (active)	0.388 µM (active)	0.0429 µM (active)	0.205 µM (active)	1.04 µM (active)	0.644 µM (active)	0.847 µM (active)	1.12 µM (inactive)	1.62 µM (inactive)	0.681 µM (active)	0.205 µM (active)	0.322 µM (active)	0.282 µM (active)		0.336 µM (active)	0.353 µM (active)	0.67 µM (active)
